Test results taken from the NIST ThermoML archive (doi:10.1016/j.jct.2014.02.016).
± gives the expanded uncertainty stated by the source.

Assay: refractive index (other wavelength) (dimensionless)
Settings: 100 kPa, Liquid, Wavelength=632.8 nm, Angle minimization by sell rotation

COC(=O)OC [dimethyl carbonate]
refractive index (293.16 K): 1.3678 ± 0.0003
refractive index (294.29 K): 1.3673 ± 0.0003
refractive index (295.28 K): 1.3669 ± 0.0003
refractive index (296.28 K): 1.3663 ± 0.0003
refractive index (297.28 K): 1.3659 ± 0.0003
refractive index (298.3 K): 1.3654 ± 0.0003
refractive index (300.3 K): 1.3644 ± 0.0003
refractive index (302.3 K): 1.3635 ± 0.0003
refractive index (303.4 K): 1.363 ± 0.0003

CCCCCCCCCCCCC [tridecane]
refractive index (294.14 K): 1.4241 ± 0.0003
refractive index (295.15 K): 1.4236 ± 0.0003
refractive index (296.18 K): 1.4232 ± 0.0003
refractive index (297.23 K): 1.4227 ± 0.0003
refractive index (299.35 K): 1.4218 ± 0.0003
refractive index (300.44 K): 1.4213 ± 0.0003
refractive index (302.44 K): 1.4204 ± 0.0003
refractive index (303.67 K): 1.4199 ± 0.0003
refractive index (304.45 K): 1.4196 ± 0.0003

CCCCCCCCCCC [undecane]
refractive index (293.4 K): 1.4162 ± 0.0003
refractive index (294.3 K): 1.4157 ± 0.0003
refractive index (295.27 K): 1.4152 ± 0.0003
refractive index (296.26 K): 1.4148 ± 0.0003
refractive index (297.25 K): 1.4144 ± 0.0003
refractive index (298.27 K): 1.4139 ± 0.0003
refractive index (299.34 K): 1.4134 ± 0.0003
refractive index (300.31 K): 1.413 ± 0.0003
refractive index (301.27 K): 1.4126 ± 0.0003
